Data as given in ChEMBL document CHEMBL1149774, “Synthesis of N-(5,7-diamino-3-phenyl-quinoxalin-2-yl)-3,4,5-substituted anilines and N-[4[(5,7-diamino-3-phenylquinoxalin-2-yl)amino]benzoyl]-l-glutamic acid diethyl ester: evaluation of in vitro anti-cancer and anti-folate activities” (Eur J Med Chem, 2008).

How the values were obtained:
Format in all cases: functional
SR = experiment: Growth inhibition of human SR cells after 48 hrs by SRB staining method
K562 = experiment: Growth inhibition of human K562 cells after 48 hrs by SRB staining method; conditions: K562, 48 h
UACC-62 = experiment: Growth inhibition of human UACC62 cells after 48 hrs by SRB staining method; conditions: UACC-62, 48 h
SK-OV-3 = experiment: Growth inhibition of human SKOV3 cells after 48 hrs by SRB staining method; conditions: SK-OV-3, 48 h
RXF 393 = experiment: Growth inhibition of human RXF393 cells after 48 hrs by SRB staining method; conditions: RXF 393, 48 h
786-0 = experiment: Growth inhibition of human 786-0 cells after 48 hrs by SRB staining method; conditions: 786-0, 48 h
CAKI-1 = experiment: Growth inhibition of human CAKI1 cells after 48 hrs by SRB staining method; conditions: CAKI-1, 48 h
IGROV-1 = experiment: Growth inhibition of human IGROV1 cells after 48 hrs by SRB staining method; conditions: IGROV-1, 48 h
NCI-H226 = experiment: Growth inhibition of human NCI-H226 cells after 48 hrs by SRB staining method; conditions: NCI-H226, 48 h
SNB-19 = experiment: Growth inhibition of human SNB19 cells after 48 hrs by SRB staining method; conditions: SNB-19, 48 h
BT-549 = experiment: Growth inhibition of human BT549 cells after 48 hrs by SRB staining method; conditions: BT-549, 48 h
MDA-MB-231 = experiment: Growth inhibition of human MDA-MB-231 cells after 48 hrs by SRB staining method; conditions: MDA-MB-231, 48 h
NCI-H23 = experiment: Growth inhibition of human NCI-H23 cells after 48 hrs by SRB staining method; conditions: NCI-H23, 48 h
SK-MEL-2 = experiment: Growth inhibition of human SK-MEL-2 cells after 48 hrs by SRB staining method; conditions: SK-MEL-2, 48 h
MCF7 = experiment: Growth inhibition of human MCF7 cells after 48 hrs by SRB staining method; conditions: MCF7, 48 h
UACC-257 = experiment: Growth inhibition of human UACC257 cells after 48 hrs by SRB staining method; conditions: UACC-257, 48 h
U-251 = experiment: Growth inhibition of human U251 cells after 48 hrs by SRB staining method; conditions: U-251, 48 h
COLO 205 = experiment: Growth inhibition of human COLO205 cells after 48 hrs by SRB staining method; conditions: COLO 205, 48 h
UO-31 = experiment: Growth inhibition of human UO31 cells after 48 hrs by SRB staining method; conditions: UO-31, 48 h
SF-268 = experiment: Growth inhibition of human SF268 cells after 48 hrs by SRB staining method; conditions: SF-268, 48 h
ACHN = experiment: Growth inhibition of human ACHN cells after 48 hrs by SRB staining method
OVCAR-8 = experiment: Growth inhibition of human OVCAR8 cells after 48 hrs by SRB staining method; conditions: OVCAR-8, 48 h
DU-145 = experiment: Growth inhibition of human DU145 cells after 48 hrs by SRB staining method; conditions: DU-145, 48 h
HL-60 = experiment: Growth inhibition of human HL60 cells after 48 hrs by SRB staining method; conditions: HL-60, 48 h
SF-295 = experiment: Growth inhibition of human SF295 cells after 48 hrs by SRB staining method; conditions: SF-295, 48 h
PC-3 = experiment: Growth inhibition of human PC3 cells after 48 hrs by SRB staining method; conditions: PC-3, 48 h
HCT-15 = experiment: Growth inhibition of human HCT15 cells after 48 hrs by SRB staining method; conditions: HCT-15, 48 h
NCI-H460 = experiment: Growth inhibition of human NCI-H460 cells after 48 hrs by SRB staining method; conditions: NCI-H460, 48 h
OVCAR-5 = experiment: Growth inhibition of human OVCAR5 cells after 48 hrs by SRB staining method; conditions: OVCAR-5, 48 h
NCI/ADR-RES = experiment: Growth inhibition of human NCI/ADR-RES cells after 48 hrs by SRB staining method
A498 = experiment: Growth inhibition of human A498 cells after 48 hrs by SRB staining method; conditions: A498, 48 h
[1] = read-out: pLC50 (the source's name) (converted)

Structure (SMILES): Nc1cc(N)c2nc(-c3ccccc3)c(Nc3ccc(F)cc3)nc2c1
- GI50 (SR): 5.37 µM
- GI50 (K562): 5.01 µM
- CC50 (K562; [1]): > 100 µM
- TGI (K562; read-out: pTGI (converted)): > 100 µM
- GI50 (UACC-62): 16.2 µM
- TGI (UACC-62; read-out: pTGI (converted)): 31.6 µM
- GI50 (SK-OV-3): 40.7 µM
- CC50 (SK-OV-3; [1]): > 100 µM
- TGI (SK-OV-3; read-out: pTGI (converted)): > 100 µM
- GI50 (RXF 393): 8.71 µM
- CC50 (RXF 393; [1]): 85.1 µM
- TGI (RXF 393; read-out: pTGI (converted)): 28.8 µM
- GI50 (786-0): 17.4 µM
- CC50 (786-0; [1]): > 100 µM
- TGI (786-0; read-out: pTGI (converted)): 53.7 µM
- GI50 (CAKI-1): 19.1 µM
- CC50 (CAKI-1; [1]): 85.1 µM
- TGI (CAKI-1; read-out: pTGI (converted)): 40.7 µM
- GI50 (IGROV-1): 16.6 µM
- TGI (IGROV-1; read-out: pTGI (converted)): > 100 µM
- GI50 (NCI-H226): 17.8 µM
- TGI (NCI-H226; read-out: pTGI (converted)): 47.9 µM
- GI50 (SNB-19): 21.9 µM
- TGI (SNB-19; read-out: pTGI (converted)): 39.8 µM
- GI50 (BT-549): 12 µM
- CC50 (BT-549; [1]): 63.1 µM
- TGI (BT-549; read-out: pTGI (converted)): 26.9 µM
- GI50 (MDA-MB-231): 11 µM
- CC50 (MDA-MB-231; [1]): 85.1 µM
- TGI (MDA-MB-231; read-out: pTGI (converted)): 30.2 µM
- GI50 (NCI-H23): 22.4 µM
- TGI (NCI-H23; read-out: pTGI (converted)): 49 µM
- GI50 (SK-MEL-2): 29.5 µM
- TGI (SK-MEL-2; read-out: pTGI (converted)): > 100 µM
- GI50 (MCF7): 12.6 µM
- CC50 (MCF7; [1]): > 100 µM
- TGI (MCF7; read-out: pTGI (converted)): > 100 µM
- GI50 (UACC-257): 15.1 µM
- TGI (UACC-257; read-out: pTGI (converted)): 28.8 µM
- GI50 (U-251): 5.62 µM
- TGI (U-251; read-out: pTGI (converted)): 20 µM
- GI50 (COLO 205): 20.4 µM
- TGI (COLO 205; read-out: pTGI (converted)): 56.2 µM
- GI50 (UO-31): 17 µM
- CC50 (UO-31; [1]): > 100 µM
- TGI (UO-31; read-out: pTGI (converted)): 61.7 µM
- GI50 (SF-268): 13.2 µM
- CC50 (SF-268; [1]): > 100 µM
- TGI (SF-268; read-out: pTGI (converted)): 40.7 µM
- GI50 (ACHN): 10.2 µM
- CC50 (ACHN; [1]): 49 µM
- TGI (ACHN; read-out: pTGI (converted)): 22.4 µM
- GI50 (OVCAR-8): 12.3 µM
- CC50 (OVCAR-8; [1]): 74.1 µM
- TGI (OVCAR-8; read-out: pTGI (converted)): 30.2 µM
- GI50 (DU-145): 12 µM
- CC50 (DU-145; [1]): 66.1 µM
- TGI (DU-145; read-out: pTGI (converted)): 28.2 µM
- GI50 (HL-60): 11.2 µM
- CC50 (HL-60; [1]): > 100 µM
- TGI (HL-60; read-out: pTGI (converted)): > 100 µM
- GI50 (SF-295): 14.5 µM
- TGI (SF-295; read-out: pTGI (converted)): 32.4 µM
- GI50 (PC-3): 11.7 µM
- CC50 (PC-3; [1]): > 100 µM
- TGI (PC-3; read-out: pTGI (converted)): > 100 µM
- GI50 (HCT-15): 12.6 µM
- TGI (HCT-15; read-out: pTGI (converted)): 38 µM
- GI50 (NCI-H460): 26.3 µM
- TGI (NCI-H460; read-out: pTGI (converted)): > 100 µM
- GI50 (OVCAR-5): 38 µM
- TGI (OVCAR-5; read-out: pTGI (converted)): > 100 µM
- GI50 (NCI/ADR-RES): 24 µM
- CC50 (NCI/ADR-RES; [1]): > 100 µM
- TGI (NCI/ADR-RES; read-out: pTGI (converted)): 57.5 µM
- GI50 (A498): 17.4 µM
- CC50 (A498; [1]): 66.1 µM
- TGI (A498; read-out: pTGI (converted)): 20 µM
